Drawing on patent EP4786487A1, “PEPTIDE” (Peptidream Inc, priority 2023, dated 2025), this text covers IC50 and Selectivity for 4 compounds.

Read-outs that look alike come from different tables or passages of the source. Starred links: 1 amine or outer side, 2 acyl side, 3 side chain; linkers in the order of their positions; H or OH if unused. Positions of bridges follow the written chain, without caps; N, C: chain ends. Non-standard residues stand in square brackets, D forms with d. Residues, ends and D or L forms follow the SMILES beside them. *: point of attachment. Phe(3-OCH2COOH) = N[C@@H](Cc1cccc(OCC(=O)O)c1)C(=O)O; Piperidine(4-CH2CH2CONH2) = NC(=O)CCC1CCN(*)CC1; Phe(4-COOH) = N[C@@H](Cc1ccc(C(=O)O)cc1)C(=O)O; Piperazinyl(4-CH2COOH) = O=C(O)CN1CCN(*)CC1; Gly(decyl) = CCCCCCCCCC[C@H](N)C(=O)O; X1 = CCCCCCC[C@H](N[*:1])C(=O)[*:2]; NMeF = CN[C@@H](Cc1ccccc1)C(=O)O; NMeE = CN[C@@H](CCC(=O)O)C(=O)O; NMeA = CN[C@@H](C)C(=O)O; Sar = CNCC(=O)O

Holding throughout (format): cell-based
One assay has as its target T1, GDF-11 (Homo sapiens, UniProt O95390).
T1 construct: purchased R&D systems 1958-GD-G8/CF
T1 sequence (O95390 299-407): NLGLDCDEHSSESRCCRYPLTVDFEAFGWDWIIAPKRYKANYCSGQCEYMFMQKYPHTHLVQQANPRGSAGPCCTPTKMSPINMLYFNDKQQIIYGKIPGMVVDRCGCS
Kind of assay: Reporter gene assay for myostatin signaling in HepG2 cell line, Evaluation Procedure (1), GDF-11 inhibition. Conditions: read-out: IC50 (Luciferase) GDF-11 HepG2. The method, boiled down:
(§1)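 HepG2 cells transfected with pGL3(CAGA)12-luciferase reporter, serum-starved in 0.1% BSA medium, then stimulated with myostatin or GDF-11 plus 4-fold peptide dilutions (0.006–100 nmol/L for myostatin, 0.12–2000 nmol/L for GDF-11) for 20–24 h at 37 °C. Luminescence read with One-Glo; IC50 calculated.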
For orientation: In a reporter assay the amount or activity of a reporter protein is the signal.

Assay [1] relates to Myostatin. Nature of the assay: Reporter gene assay for myostatin signaling in HepG2 cell line, Evaluation Procedure (1), myostatin inhibition. The settings on record: GDF-11 IC50 versus Myostatin IC50. Put shortly: as §1
Assay [2] concerns the target T2, Myostatin (Homo sapiens, UniProt O14793).
T2 construct: active myostatin (also called mature myostatin) is a homodimer consisting of two C-terminal growth factor domains; purchased R&D systems 788-G8/CF
T2 sequence (O14793 267-375): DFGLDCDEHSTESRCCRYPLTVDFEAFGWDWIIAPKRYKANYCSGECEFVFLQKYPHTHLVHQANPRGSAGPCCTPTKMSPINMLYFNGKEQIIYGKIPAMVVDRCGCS
The assay is described as above. The settings on record: read-out: IC50 (Luciferase) Myostatin HepG2. The method, boiled down:
as §1

`CC[C@H](C)[C@@H]1NC(=O)[C@H](Cc2ccccc2)N(C)C(=O)[C@H](Cc2ccc(O)cc2)NC(=O)[C@H](Cc2c[nH]c3ccccc23)NC(=O)[C@H](C)NC(=O)[C@H](C)NC(=O)CSC[C@H](C(=O)O)NC(=O)[C@H](Cc2ccccc2)N(C)C(=O)[C@H](C)N(C)C(=O)[C@H](CC(C)C)NC(=O)[C@H](Cc2ccccc2)N(C)C(=O)[C@H](CCCNC(=N)N)NC(=O)[C@H](Cc2ccc(C(=O)O)cc2)NC(=O)[C@H](Cc2cccc(OCC(=O)O)c2)NC(=O)CN(C)C1=O` [Myostatin_99_v192] ({CH2CO}-AAWY[NMeF]I[Sar][Phe(3-OCH2COOH)][Phe(4-COOH)]R[NMeF]L[NMeA][NMeF][dC]-OH; thioether N-15): the half-maximal inhibitory concentration (IC50) on GDF-11 (Method A: GDF-11 10 ng/mL) is 2060 nM; at Myostatin [2] (Method A: Myostatin 10 ng/mL), 12.1 nM. The compound further came in with a Selectivity with Myostatin [1] (Method A) of 170.
Consider `CCCCCCCCCC[C@@H]1NC(=O)[C@H](Cc2ccccc2)N(C)C(=O)[C@H](CCCNC(=N)N)NC(=O)[C@H](Cc2ccc(C(=O)O)cc2)NC(=O)[C@H](Cc2cccc(OCC(=O)O)c2)NC(=O)[C@H]2CCCN2C(=O)[C@H]([C@@H](C)CC)NC(=O)[C@H](Cc2ccccc2)N(C)C(=O)[C@H](Cc2ccc(O)cc2)NC(=O)[C@H](Cc2c[nH]c3ccccc23)NC(=O)[C@H](C)NC(=O)[C@H](C)NC(=O)CSC[C@H](C(=O)N2CCC(CCC(N)=O)CC2)NC(=O)[C@H](Cc2ccccc2)N(C)C(=O)[C@H](CCC(=O)O)N(C)C1=O` [Myostatin_99_v344] ({CH2CO}-AAWY[NMeF]I[dP][Phe(3-OCH2COOH)][Phe(4-COOH)]R[NMeF][Gly(decyl)][NMeE][NMeF][dC]-{Piperidine(4-CH2CH2CONH2)}; thioether N-15), for which the IC50 at GDF-11 (Method C: GDF-11 1 ng/mL) was 62.3 nM; on Myostatin [2] (Method C: Myostatin 1.5 ng/mL), 0.08 nM. For the same compound, the Selectivity in the assay on Myostatin [1] (Method C) stood at 812.6.
On to `CC[C@H](C)[C@@H]1NC(=O)[C@H](Cc2ccccc2)N(C)C(=O)[C@H](Cc2ccc(O)cc2)NC(=O)[C@H](Cc2c[nH]c3ccccc23)NC(=O)[C@H](C)NC(=O)[C@H](C)NC(=O)CSC[C@H](C(=O)O)NC(=O)[C@H](Cc2ccccc2)N(C)C(=O)[C@H](C)N(C)C(=O)[C@H](CC(C)C)NC(=O)[C@H](Cc2ccccc2)N(C)C(=O)[C@H](CCCNC(=N)N)NC(=O)[C@H](Cc2ccc(C(=O)O)cc2)NC(=O)[C@H](Cc2ccc(O)cc2)NC(=O)[C@H](C)N(C)C1=O` [Myostatin_99_v191] ({CH2CO}-AAWY[NMeF]I[NMeA]Y[Phe(4-COOH)]R[NMeF]L[NMeA][NMeF][dC]-OH; thioether N-15), for which the IC50 on GDF-11 (Method A: GDF-11 10 ng/mL) was found to be 283 nM; at Myostatin [2] (Method A: Myostatin 10 ng/mL) it was 8.1 nM. Moreover, the Selectivity with Myostatin [1] (Method A) was determined as 35.
With `CCCCCCC[C@@H]1NC(=O)[C@H](Cc2ccccc2)N(C)C(=O)[C@H](CCCNC(=N)N)NC(=O)[C@H](Cc2ccc(C(=O)O)cc2)NC(=O)[C@H](Cc2cccc(OCC(=O)O)c2)NC(=O)CN(C)C(=O)[C@H]([C@@H](C)CC)NC(=O)[C@H](Cc2ccccc2)N(C)C(=O)[C@H](Cc2ccc(O)cc2)NC(=O)[C@H](Cc2c[nH]c3ccccc23)NC(=O)[C@H](C)NC(=O)[C@H](C)NC(=O)CSC[C@H](C(=O)N2CCN(CC(=O)O)CC2)NC(=O)[C@H](Cc2ccccc2)N(C)C(=O)[C@H](C)N(C)C1=O` [Myostatin_99_v221] ({CH2CO}-AAWY[NMeF]I[Sar][Phe(3-OCH2COOH)][Phe(4-COOH)]R[NMeF][X1][NMeA][NMeF][dC]-{Piperazinyl(4-CH2COOH)}; thioether N-15), the 50% inhibitory concentration (IC50) on GDF-11 (Method A: GDF-11 10 ng/mL) worked out at 72 nM; on Myostatin [2] (Method A: Myostatin 10 ng/mL) it was 0.9 nM. For the same compound, in the assay with Myostatin [1] (Method A), the Selectivity came to 80.

The IC50 is the point on the concentration scale where inhibition reaches its midpoint.
